From ChEMBL document CHEMBL1201862, “PubChem BioAssay data set” (2004) come the findings set out here.

Test systems include SR; NCI/ADR-RES; SW-620; U-251; A498; HL-60; SK-OV-3; HCT-15; T47D; NCI-H460; NCI-H226; SK-MEL-5; COLO 205; TK-10; OVCAR-4; OVCAR-3; HOP-92; HT-29; SF-268; DLD-1.
What all share (experiment): NCI-60 cell line screen, 48 h

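How tested: cells in 96-well plates exposed to compound for 48 hours at five concentrations. GI50 marks 50% less growth.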 Activity calls are given as the source filed them. Rule as the data show it: active = GI50 up to about 1.1 µM and inactive = higher. Where a SMILES comes first, the peptide text is derived from it. The star is where a group is joined. Cbz = O=C(OCc1ccccc1)*

For the molecule `CCCS(=O)(=O)Nc1ccc(Nc2c3ccccc3nc3ccccc23)c(OC)c1`, the GI50 with SR was 0.0236 µM (active); with NCI/ADR-RES it was 3.95 µM (inactive); in the experiment on SW-620 it was 2.08 µM (inactive); in the experiment on U-251 it was 0.641 µM (active); with A498, 0.904 µM (active); in the experiment with HL-60 it was 0.126 µM (active). Further, the GI50 with SK-OV-3 is 2.08 µM (inactive); in the experiment with HCT-15 it was 1.35 µM; in the experiment with T47D it was 0.902 µM (active); in the experiment on NCI-H460, 0.0362 µM (active); in the experiment with NCI-H226, 1.46 µM (inactive); with SK-MEL-5, 2 µM (inactive). Moreover, the GI50 is 2.16 µM (inactive) with COLO 205; 3.78 µM (inactive) in the experiment on TK-10; 7.62 µM (inactive) in the experiment with OVCAR-4; 2.3 µM (inactive) in the experiment with OVCAR-3; 1.73 µM (inactive) with HOP-92; 1.75 µM (inactive) in the experiment on HT-29. In addition, in the experiment on SF-268, the GI50 was 0.853 µM (active).
As to `CN(C)CC1CCC/C(=C\c2ccc(OC(=O)/C=C/c3ccc(Cl)c(Cl)c3)cc2)C1=O` (stereo not given), the GI50 was 1.21 µM (inactive) in the experiment with SR; 2.92 µM (inactive) in the experiment with NCI/ADR-RES; 2.75 µM (inactive) in the experiment on SW-620; 6.17 µM (inactive) with U-251; 7.89 µM (inactive) in the experiment with A498; 0.796 µM (active) in the experiment on HL-60. The GI50 is 37.3 µM (inactive) in the experiment on SK-OV-3; 2.45 µM in the experiment on HCT-15; 2.44 µM (inactive) in the experiment with T47D; 3.86 µM (inactive) in the experiment on NCI-H460; 1.71 µM (inactive) with NCI-H226; 4.09 µM (inactive) with SK-MEL-5. Besides, the GI50 is 1.83 µM (inactive) in the experiment with COLO 205; 1.76 µM (inactive) with TK-10; 22.9 µM (inactive) in the experiment with OVCAR-4; 3.48 µM (inactive) in the experiment on OVCAR-3; 1.79 µM (inactive) in the experiment on HOP-92; 2.11 µM (inactive) in the experiment with HT-29. Further, the GI50 in the experiment with SF-268 is 9.29 µM (inactive).
Take `Cc1ccccc1C(C#N)C(=O)C(=O)Nc1nc([N+](=O)[O-])cs1` (stereo not given): the GI50 in the experiment on SW-620 was > 100 µM (inactive); with U-251, > 100 µM (inactive); in the experiment on DLD-1, > 100 µM (inactive); in the experiment on A498, > 100 µM (inactive); in the experiment on HL-60, 26.2 µM (inactive); in the experiment with SK-OV-3, > 100 µM (inactive). In addition, the GI50 in the experiment on HCT-15 was greater than 100 µM; with NCI-H460, > 100 µM (inactive); with NCI-H226, > 100 µM (inactive); in the experiment with SK-MEL-5 it was > 100 µM (inactive); in the experiment on TK-10 it was > 100 µM (inactive); in the experiment with OVCAR-4, > 100 µM (inactive). Besides, the GI50 with OVCAR-3, in the experiment with HT-29 and in the experiment on SF-268 was > 100 µM (inactive) in each case.
Turning to `COc1ccc2[nH]c(C(=O)N3CC(CCl)c4ccc([N+](=O)[O-])cc43)cc2c1` (stereo not given), the GI50 in the experiment on SR, in the experiment with NCI/ADR-RES, with SW-620, with U-251, with A498 and with HL-60 was > 100 µM (inactive) in each case. For the same molecule, the GI50 was > 100 µM (inactive) with SK-OV-3; greater than 100 µM in the experiment on HCT-15; > 21.6 µM (inactive) in the experiment on T47D; > 100 µM (inactive) in the experiment on NCI-H460; 33.8 µM (inactive) in the experiment on NCI-H226; > 100 µM (inactive) in the experiment on SK-MEL-5. Besides, the GI50 was > 100 µM (inactive) in the experiment with COLO 205; > 100 µM (inactive) in the experiment on TK-10; > 64.4 µM (inactive) in the experiment on OVCAR-4; > 100 µM (inactive) with OVCAR-3; > 100 µM (inactive) in the experiment on HOP-92; > 95.7 µM (inactive) in the experiment on HT-29. Further, the GI50 in the experiment on SF-268 was > 100 µM (inactive).
Take `OC(CC(CC(O)(C(F)(F)Cl)C(F)(F)Cl)=NNc1ccccc1)(C(F)(F)Cl)C(F)(F)Cl`: the GI50 in the experiment on SR was 5.79 µM (inactive); in the experiment with NCI/ADR-RES it was 4.05 µM (inactive); in the experiment on SW-620, 3.27 µM (inactive); in the experiment on U-251, 3.3 µM (inactive); with A498 it was 2.54 µM (inactive); with HL-60 it was > 10 µM (inactive). In addition, the GI50 in the experiment with SK-OV-3 was 4.04 µM (inactive); in the experiment with HCT-15 it was 3.23 µM; in the experiment with T47D, 4.11 µM (inactive); in the experiment with NCI-H460 it was 3.04 µM (inactive); in the experiment with NCI-H226, 2.99 µM (inactive); with SK-MEL-5 it was 1.71 µM (inactive). Moreover, the GI50 with COLO 205 is 1.91 µM (inactive); in the experiment with TK-10, 3.88 µM (inactive); in the experiment on OVCAR-4, 3.33 µM (inactive); in the experiment on OVCAR-3, 2.77 µM (inactive); in the experiment on HOP-92 it was 2.01 µM (inactive); with HT-29, 3.06 µM (inactive). Further, the GI50 in the experiment with SF-268 is 2.55 µM (inactive).
Consider `CC1=NC(C)(COC(=O)C2(C)NC(C)(CO)CO2)COC1=O` (stereo not given), for which the GI50 with SR was > 33 µM (inactive); in the experiment with NCI/ADR-RES, > 100 µM (inactive); in the experiment with SW-620 it was > 100 µM (inactive); in the experiment with U-251, > 100 µM (inactive); in the experiment on A498 it was > 100 µM (inactive); in the experiment on HL-60, > 100 µM (inactive). The GI50 with SK-OV-3 was > 100 µM (inactive); in the experiment on HCT-15 it was greater than 100 µM; with T47D it was > 100 µM (inactive); with NCI-H460, > 100 µM (inactive); in the experiment on NCI-H226, > 100 µM (inactive); in the experiment on SK-MEL-5, > 100 µM (inactive). Also, the GI50 is > 100 µM (inactive) with COLO 205; > 75 µM (inactive) in the experiment with TK-10; > 100 µM (inactive) in the experiment on OVCAR-4; > 100 µM (inactive) in the experiment with OVCAR-3; > 100 µM (inactive) in the experiment with HOP-92; > 100 µM (inactive) in the experiment with HT-29. Also, the GI50 in the experiment on SF-268 is > 100 µM (inactive).
Take `O=C(O)C1(C(=O)O)CC1`: the GI50 in the experiment with SW-620, in the experiment with U-251, in the experiment with DLD-1, in the experiment with A498, in the experiment with HL-60 and in the experiment on SK-OV-3 was > 100 µM (inactive) in each case. Further, the GI50 is greater than 100 µM in the experiment on HCT-15; > 100 µM (inactive) in the experiment with NCI-H460; > 100 µM (inactive) in the experiment on SK-MEL-5; > 100 µM (inactive) in the experiment on COLO 205; > 100 µM (inactive) with TK-10; > 100 µM (inactive) with OVCAR-4. For the same molecule, the GI50 with OVCAR-3 and in the experiment with SF-268 was > 100 µM (inactive) each time.
On to `Clc1ccc(C2c3ccccc3-c3nc4ccccc4n32)cc1` (stereo not given), for which the GI50 with SR was 8.99 µM (inactive); with NCI/ADR-RES, 11.8 µM (inactive); with SW-620 it was 44.8 µM (inactive); in the experiment with U-251, 24.3 µM (inactive); in the experiment on A498 it was 25.1 µM (inactive); in the experiment on HL-60, 3.65 µM (inactive). Also, the GI50 in the experiment on SK-OV-3 was 3.34 µM (inactive); in the experiment on HCT-15, 17.3 µM; in the experiment on T47D it was > 27.2 µM (inactive); in the experiment on NCI-H460, 19.7 µM (inactive); in the experiment on NCI-H226 it was > 42.5 µM (inactive); in the experiment with SK-MEL-5, 27.4 µM (inactive). Also, the GI50 was > 61.2 µM (inactive) with COLO 205; > 66.7 µM (inactive) in the experiment with TK-10; 15.9 µM (inactive) with OVCAR-4; 12.6 µM (inactive) in the experiment with OVCAR-3; 34.8 µM (inactive) in the experiment with HOP-92; 20.9 µM (inactive) in the experiment on HT-29. The GI50 with SF-268 was 25 µM (inactive).
As to `O=c1cc(NNc2cccc(F)c2)[nH]c(=O)[nH]1`, the GI50 is 10.2 µM (inactive) with SR; > 100 µM (inactive) in the experiment with NCI/ADR-RES; 18.6 µM (inactive) in the experiment on SW-620; 17.2 µM (inactive) in the experiment on U-251; > 100 µM (inactive) with A498; 19.1 µM (inactive) with HL-60. Moreover, the GI50 in the experiment with SK-OV-3 was > 100 µM (inactive); with HCT-15, 16.9 µM; with T47D, 14.9 µM (inactive); in the experiment on NCI-H460, > 100 µM (inactive); in the experiment with NCI-H226, > 100 µM (inactive); with SK-MEL-5 it was > 100 µM (inactive). For the same molecule, the GI50 in the experiment with COLO 205 was 34.6 µM (inactive); with TK-10, 14.2 µM (inactive); in the experiment on OVCAR-4, > 100 µM (inactive); in the experiment with OVCAR-3, 16.5 µM (inactive); in the experiment with HOP-92, 16.3 µM (inactive); with HT-29, 16.3 µM (inactive). Besides, the GI50 in the experiment on SF-268 was > 100 µM (inactive).
Regarding `COc1ccccc1/[N+]([O-])=C/c1ccccc1OC(=S)S`, the GI50 with SR was 31.5 µM (inactive); in the experiment on NCI/ADR-RES, 30.6 µM (inactive); in the experiment with SW-620, 44.5 µM (inactive); in the experiment on U-251, 41.7 µM (inactive); in the experiment on A498, 32.4 µM (inactive); in the experiment on HL-60, 25.8 µM (inactive). The GI50 with SK-OV-3 was > 100 µM (inactive); with HCT-15, 23 µM; in the experiment with T47D, 17.6 µM (inactive); with NCI-H460, 64.9 µM (inactive); with NCI-H226, 28.8 µM (inactive); with SK-MEL-5, 34.2 µM (inactive). For the same molecule, the GI50 in the experiment on COLO 205 was 27.4 µM (inactive); in the experiment with TK-10 it was > 100 µM (inactive); in the experiment on OVCAR-4, 28.3 µM (inactive); with OVCAR-3, 26.2 µM (inactive); in the experiment on HOP-92 it was 19 µM (inactive); with HT-29 it was > 100 µM (inactive). For the same molecule, the GI50 with SF-268 was 33.7 µM (inactive).
Take `CCOC(=O)CCC(NC(=O)C(Cc1ccccc1)NC(=O)OCc1ccccc1)C(=O)OCC` (stereo not drawn) (Cbz-Phe-Glu(OEt)-OEt; configuration not given here): the GI50 with SR was 27 µM (inactive); in the experiment on NCI/ADR-RES it was 18.2 µM (inactive); in the experiment with SW-620, 18.2 µM (inactive); in the experiment with U-251, 14.9 µM (inactive); in the experiment with A498 it was 21.2 µM (inactive); in the experiment with HL-60 it was 20.1 µM (inactive). Moreover, the GI50 is 16.6 µM (inactive) with SK-OV-3; 20.1 µM in the experiment with HCT-15; 16.2 µM (inactive) in the experiment on T47D; 20.5 µM (inactive) in the experiment on NCI-H460; 16.6 µM (inactive) in the experiment with NCI-H226; 15.5 µM (inactive) in the experiment with SK-MEL-5. Also, the GI50 in the experiment on COLO 205 was 19.4 µM (inactive); in the experiment on TK-10 it was 19.4 µM (inactive); with OVCAR-4 it was 17.7 µM (inactive); with OVCAR-3 it was 15.3 µM (inactive); with HOP-92, 18.5 µM (inactive); in the experiment with HT-29, 20.2 µM (inactive). For the same molecule, the GI50 in the experiment with SF-268 was 16.2 µM (inactive).
